Assay results: PMC8482776 (ACS Omega, 2021)
Converted amounts (≈) assume the structure as drawn.

Assays:
[1] = system: T. mentagrophytes (PTCC 5054); test: Microdilution MIC90, strain M; assay type: cell-based; details: Trichophyton mentagrophytes, PTCC5054, 48 h
[2] = system: Asp. nidulans (PTCC 5014); test: Microdilution MIC90, strain F; assay type: cell-based, Aspergillus nidulans; details: filamentous fungi, 48 h at 37 °C, triplicate
[3] = system: C. albicans (ATCC 10231); test: Microdilution MIC90, strain A; assay type: cell-based; details: 24 h, strain A, yeast, 24 h at 37 °C, triplicate
[4] = system: Asp. flavus (ATCC 204304); test: Microdilution MIC90, strain G; assay type: cell-based, Aspergillus flavus; details: filamentous fungi, 48 h at 37 °C, triplicate
[5] = system: C. parapsilosis (ATCC 22019); test: Microdilution MIC90, strain D; assay type: cell-based; details: 24 h
[6] = system: C. tropicalis (PTCC 5028); test: Microdilution MIC90, strain E; assay type: cell-based; details: 24 h
[7] = system: M. canis (PTCC 5069); test: Microdilution MIC90, strain O; assay type: cell-based; details: Microsporum canis, PTCC5069, 48 h
[8] = system: T. rubrum (PTCC 5143); test: Microdilution MIC90, strain K; assay type: cell-based, Trichophyton rubrum; details: filamentous fungi, 48 h at 37 °C, triplicate
[9] = system: T. schoenleinii (PTCC 5221); test: Microdilution MIC90, strain N; assay type: cell-based; details: Trichophyton schoenleinii, PTCC5221, 48 h
[10] = system: Asp. niger (PTCC 5154); test: Microdilution MIC90, strain I; assay type: cell-based, Aspergillus niger; details: filamentous fungi, 48 h at 37 °C, triplicate
[11] = system: Asp. fumigatus (PTCC 5009); test: Microdilution MIC90, strain H; assay type: cell-based; details: filamentous fungi, 48 h at 37 °C, triplicate
[12] = system: Asp. terreus (PTCC 5023); test: Microdilution MIC90, strain J; assay type: cell-based, Aspergillus terreus; details: Aspergillus terreus, PTCC5023, 48 h, filamentous fungi, 48 h at 37 °C, triplicate
[13] = system: C. krusei (ATCC 6258); test: Microdilution MIC90, strain B; assay type: cell-based; details: yeast, 24 h at 37 °C, triplicate
[14] = system: C. glabrata (ATCC 90030); test: Microdilution MIC90, strain C; assay type: cell-based; details: 24 h, yeast, 24 h at 37 °C, triplicate
[15] = system: Microsporum gypseum (PTCC 5070); test: Microdilution MIC90, strain L; assay type: cell-based; details: filamentous fungi, 48 h at 37 °C, triplicate
[16] = Aspergillus nidulans, PTCC5014, 48 h
[17] = Aspergillus flavus, ATCC204304, 48 h
[18] = Trichophyton rubrum, PTCC5143, 48 h
[19] = Aspergillus niger, PTCC5154, 48 h
[20] = Aspergillus fumigatus, PTCC5009, 48 h

Row | SMILES | MIC90 [1] [µg/mL] | MIC90 [2, 16] [µg/mL] | MIC90 [3] [µg/mL] | MIC90 [4, 17] [µg/mL] | MIC90 [5] [µg/mL] | MIC90 [6] [µg/mL] | MIC90 [7] [µg/mL] | MIC90 [8, 18] [µg/mL] | MIC90 [9] [µg/mL] | MIC90 [10, 19] [µg/mL] | MIC90 [11, 20] [µg/mL] | MIC90 [12] [µg/mL] | MIC90 ([13]; 24 h) [µg/mL] | MIC90 [2] [μg·mL^–1] | MIC90 [14] [µg/mL] | MIC90 [4] [μg·mL^–1] | further results
1 | O=C(Nc1ccc(Cl)cc1)Nc1nnc(SCC(O)(Cn2cncn2)c2ccc(F)cc2F)s1 (stereo not drawn) [Compound 8a, 1-(4-Chlorophenyl)-3-(5-((2-(2,4-difluorophenyl)-2-hydroxy-3-(1H-1,2,4-triazol-1-yl)propyl)thio)-1,3,4-thiadiazol-2-yl)urea] | 16 (≈ 30.5 µM) | 16 (≈ 30.5 µM) | 32 (≈ 61.1 µM) | 8 (≈ 15.3 µM) | 8 (≈ 15.3 µM) | 32 (≈ 61.1 µM) | 2 (≈ 3.82 µM) | 2 (≈ 3.82 µM) | 8 (≈ 15.3 µM) | 2 to 4 (≈ 3.82 to 7.63 µM) | 2 to 4 (≈ 3.82 to 7.63 µM) | 8 (≈ 15.3 µM) | 1 to 16 (≈ 1.91 to 30.5 µM) |  |  |  | MIC90 [10]: 4 μg·mL^–1; MIC90 [11]: 1 μg·mL^–1; MIC90 [13]: 1 μg·mL^–1
2 | O=C(Nc1ccc(Br)cc1)Nc1nnc(SCC(O)(Cn2cncn2)c2ccc(F)cc2F)s1 (stereo not drawn) [Compound 8d, 1-(4-Bromophenyl)-3-(5-((2-(2,4-difluorophenyl)-2-hydroxy-3-(1H-1,2,4-triazol-1-yl)propyl)thio)-1,3,4-thiadiazol-2-yl)urea] | 32 (≈ 56.3 µM) | 2 to 4 (≈ 3.52 to 7.04 µM) | 32 (≈ 56.3 µM) | 8 (≈ 14.1 µM) | 8 (≈ 14.1 µM) | 32 (≈ 56.3 µM) | 64 (≈ 113 µM) | 4 (≈ 7.04 µM) | 32 (≈ 56.3 µM) | 64 (≈ 113 µM) | 64 (≈ 113 µM) | 32 (≈ 56.3 µM) |  | 4 | 32 (≈ 56.3 µM) |  | 
3 | O=C(Nc1cccc(Cl)c1)Nc1nnc(SCC(O)(Cn2cncn2)c2ccc(F)cc2F)s1 (stereo not drawn) [Compound 8f, 1-(3-Chlorophenyl)-3-(5-((2-(2,4-difluorophenyl)-2-hydroxy-3-(1H-1,2,4-triazol-1-yl)propyl)thio)-1,3,4-thiadiazol-2-yl)urea] |  | 2 to 4 (≈ 3.82 to 7.63 µM) | 4 (≈ 7.63 µM) | 2 to 4 (≈ 3.82 to 7.63 µM) | 8 (≈ 15.3 µM) |  |  | 2 (≈ 3.82 µM) |  |  |  |  |  | 4 |  | 4 | MIC90 [15]: 4 μg·mL^–1
4 | COc1cccc(NC(=O)Nc2nnc(SCC(O)(Cn3cncn3)c3ccc(F)cc3F)s2)c1 (stereo not drawn) [Compound 8h, 1-(5-((2-(2,4-Difluorophenyl)-2-hydroxy-3-(1H-1,2,4-triazol-1-yl)propyl)thio)-1,3,4-thiadiazol-2-yl)-3-(3-methoxyphenyl)urea] | 16 (≈ 30.8 µM) | 2 to 4 (≈ 3.85 to 7.7 µM) | 16 (≈ 30.8 µM) | 8 (≈ 15.4 µM) | 4 (≈ 7.7 µM) | 16 (≈ 30.8 µM) | 32 (≈ 61.6 µM) | 2 (≈ 3.85 µM) | 32 (≈ 61.6 µM) | 8 (≈ 15.4 µM) | 16 (≈ 30.8 µM) | 16 (≈ 30.8 µM) | 8 (≈ 15.4 µM) | 4 |  |  | 
5 | Cc1cccc(NC(=O)Nc2nnc(SCC(O)(Cn3cncn3)c3ccc(F)cc3F)s2)c1 (stereo not drawn) [Compound 8i, 1-(5-((2-(2,4-Difluorophenyl)-2-hydroxy-3-(1H-1,2,4-triazol-1-yl)propyl)thio)-1,3,4-thiadiazol-2-yl)-3-(m-tolyl)urea] | 16 (≈ 31.8 µM) | 2 to 4 (≈ 3.97 to 7.94 µM) | 8 (≈ 15.9 µM) | 2 to 4 (≈ 3.97 to 7.94 µM) | 8 (≈ 15.9 µM) | 8 (≈ 15.9 µM) | 16 (≈ 31.8 µM) | 16 (≈ 31.8 µM) | 8 (≈ 15.9 µM) | 16 (≈ 31.8 µM) | 8 (≈ 15.9 µM) | 32 (≈ 63.5 µM) | 16 (≈ 31.8 µM) | 2 | 32 (≈ 63.5 µM) | 2 | 
6 | O=C(Nc1cccc(C(F)(F)F)c1)Nc1nnc(SCC(O)(Cn2cncn2)c2ccc(F)cc2F)s1 (stereo not drawn) [Compound 8j, 1-(5-((2-(2,4-Difluorophenyl)-2-hydroxy-3-(1H-1,2,4-triazol-1-yl)propyl)thio)-1,3,4-thiadiazol-2-yl)-3-(3-(trifluoromethyl)phenyl)urea] | 16 (≈ 28.7 µM) | 16 (≈ 28.7 µM) |  | 16 (≈ 28.7 µM) | 8 (≈ 14.3 µM) | 16 (≈ 28.7 µM) | 16 (≈ 28.7 µM) | 8 (≈ 14.3 µM) | 16 (≈ 28.7 µM) | 32 (≈ 57.4 µM) | 16 (≈ 28.7 µM) | 32 (≈ 57.4 µM) | 32 (≈ 57.4 µM) |  | 32 (≈ 57.4 µM) |  | 
7 | O=C(Nc1nnc(SCC(O)(Cn2cncn2)c2ccc(F)cc2F)s1)Nc1ccccc1C(F)(F)F (stereo not drawn) [Compound 8k, 1-(5-((2-(2,4-Difluorophenyl)-2-hydroxy-3-(1H-1,2,4-triazol-1-yl)propyl)thio)-1,3,4-thiadiazol-2-yl)-3-(2-(trifluoromethyl)phenyl)urea] | 32 (≈ 57.4 µM) | 2 to 4 (≈ 3.59 to 7.17 µM) |  | 2 to 4 (≈ 3.59 to 7.17 µM) | 4 (≈ 7.17 µM) | 16 (≈ 28.7 µM) | 16 (≈ 28.7 µM) | 8 (≈ 14.3 µM) | 16 (≈ 28.7 µM) | 16 (≈ 28.7 µM) | 16 (≈ 28.7 µM) | 16 (≈ 28.7 µM) |  | 4 | 16 (≈ 28.7 µM) | 2 | 
8 | O=C(Nc1nnc(SCC(O)(Cn2cncn2)c2ccc(F)cc2F)s1)Nc1ccccc1Cl (stereo not drawn) [Compound 8l, 1-(2-Chlorophenyl)-3-(5-((2-(2,4-difluorophenyl)-2-hydroxy-3-(1H-1,2,4-triazol-1-yl)propyl)thio)-1,3,4-thiadiazol-2-yl)urea] |  | 8 (≈ 15.3 µM) |  | 2 to 4 (≈ 3.82 to 7.63 µM) | 8 (≈ 15.3 µM) |  |  |  |  |  |  |  |  |  |  | 4 | 
9 | O=C(Nc1nnc(SCC(O)(Cn2cncn2)c2ccc(F)cc2F)s1)Nc1ccccc1Br (stereo not drawn) [Compound 8m, 1-(2-Bromophenyl)-3-(5-((2-(2,4-difluorophenyl)-2-hydroxy-3-(1H-1,2,4-triazol-1-yl)propyl)thio)-1,3,4-thiadiazol-2-yl)urea] | 32 (≈ 56.3 µM) | 8 (≈ 14.1 µM) | 32 (≈ 56.3 µM) | 8 (≈ 14.1 µM) | 16 (≈ 28.1 µM) | 8 (≈ 14.1 µM) | 64 (≈ 113 µM) | 2 to 4 (≈ 3.52 to 7.04 µM) | 64 (≈ 113 µM) | 32 (≈ 56.3 µM) | 32 (≈ 56.3 µM) | 16 (≈ 28.1 µM) |  |  | 16 (≈ 28.1 µM) |  | MIC90 [8]: 4 μg·mL^–1
10 | Cc1ccccc1NC(=O)Nc1nnc(SCC(O)(Cn2cncn2)c2ccc(F)cc2F)s1 (stereo not drawn) [Compound 8n, 1-(5-((2-(2,4-Difluorophenyl)-2-hydroxy-3-(1H-1,2,4-triazol-1-yl)propyl)thio)-1,3,4-thiadiazol-2-yl)-3-(o-tolyl)urea] |  | 2 to 4 (≈ 3.97 to 7.94 µM) |  | 8 (≈ 15.9 µM) |  |  |  |  |  |  |  |  |  | 4 |  |  | 
11 | O=C(Nc1ccc(Cl)c(Cl)c1)Nc1nnc(SCC(O)(Cn2cncn2)c2ccc(F)cc2F)s1 (stereo not drawn) [Compound 8q, 1-(3,4-Dichlorophenyl)-3-(5-((2-(2,4-difluorophenyl)-2-hydroxy-3-(1H-1,2,4-triazol-1-yl)propyl)thio)-1,3,4-thiadiazol-2-yl)urea] | 16 (≈ 28.7 µM) | 8 (≈ 14.3 µM) | 32 (≈ 57.3 µM) | 8 (≈ 14.3 µM) | 4 (≈ 7.16 µM) | 16 (≈ 28.7 µM) | 16 (≈ 28.7 µM) | 2 to 4 (≈ 3.58 to 7.16 µM) | 16 (≈ 28.7 µM) | 32 (≈ 57.3 µM) | 32 (≈ 57.3 µM) | 8 (≈ 14.3 µM) |  |  |  |  | MIC90 [8]: 4 μg·mL^–1
